Where “and” joins values, the source holds several entries; their conditions need not be identical. Equal entries are not always repeated. ± gives the expanded uncertainty stated by the source.
Experiments:
[1] = molar heat capacity at saturation pressure; settings: Liquid, Small sample (50 mg) DSC
[2] = for vapor or sublimation pressure: Twin ebulliometer; for molar entropy: 101.33 kPa, Small sample (50 mg) DSC; for Critical density: DSC; for Critical temperature: DTA
[3] = 323.14 K, Liquid, Vibrating tube method
[4] = 348.13 K, Liquid, Vibrating tube method
[5] = 373.12 K, Liquid, Vibrating tube method
[6] = 398.12 K, Liquid, Vibrating tube method
[7] = 423.11 K, Liquid, Vibrating tube method
[8] = 448.11 K, Liquid, Vibrating tube method

Cc1c[nH]c(C)c1 [2,4-dimethyl-1H-pyrrole]
molar heat capacity ([1]; 440 K): 241.31 ± 4.2 J/K/mol | molar heat capacity ([1]; 460 K): 247.84 ± 4.3 J/K/mol | molar heat capacity ([1]; 480 K): 253.77 ± 4.4 J/K/mol | molar heat capacity ([1]; 500 K): 259.54 ± 4.5 J/K/mol | molar heat capacity ([1]; 520 K): 265.15 ± 4.6 J/K/mol | molar heat capacity ([1]; 540 K): 270.8 ± 4.7 J/K/mol | molar heat capacity ([1]; 560 K): 276.99 ± 4.8 J/K/mol | molar heat capacity ([1]; 580 K): 284.79 ± 4.9 J/K/mol | molar heat capacity ([1]; 600 K): 297.37 ± 5.1 J/K/mol | mass density [2, 3]: 895.5 ± 1.8 kg/m3 | vapor or sublimation pressure ([2]; 338.25 K, Liquid): 1.995 ± 0.008 kPa | vapor or sublimation pressure ([2]; 343.72 K, Liquid): 2.666 ± 0.008 kPa | mass density [2, 4]: 874.8 ± 1.8 kg/m3 | vapor or sublimation pressure ([2]; 351.75 K, Liquid): 4 ± 0.008 kPa | vapor or sublimation pressure ([2]; 357.76 K, Liquid): 5.337 ± 0.008 kPa | vapor or sublimation pressure ([2]; 366.62 K, Liquid): 7.992 ± 0.008 kPa | mass density [2, 5]: 853 ± 1.7 kg/m3 | vapor or sublimation pressure ([2]; 373.28 K, Liquid): 10.66 ± 0.008 kPa | vapor or sublimation pressure ([2]; 378.68 K, Liquid): 13.34 ± 0.009 kPa | vapor or sublimation pressure ([2]; 384.24 K, Liquid): 16.66 ± 0.009 kPa | vapor or sublimation pressure ([2]; 388.88 K, Liquid): 19.93 ± 0.01 kPa | vapor or sublimation pressure ([2]; 394.96 K, Liquid): 25.02 ± 0.011 kPa and 25.01 ± 0.01 kPa | mass density [2, 6]: 830.6 ± 1.7 kg/m3 | vapor or sublimation pressure ([2]; 401.09 K, Liquid): 31.17 ± 0.012 kPa | vapor or sublimation pressure ([2]; 407.25 K, Liquid): 38.57 ± 0.013 kPa | vapor or sublimation pressure ([2]; 413.43 K, Liquid): 47.37 ± 0.015 kPa | vapor or sublimation pressure ([2]; 419.66 K, Liquid): 57.81 ± 0.018 kPa | mass density [2, 7]: 807.2 ± 1.6 kg/m3 | vapor or sublimation pressure ([2]; 425.98 K, Liquid): 70.24 ± 0.02 kPa | vapor or sublimation pressure ([2]; 432.21 K, Liquid): 84.53 ± 0.023 kPa | vapor or sublimation pressure ([2]; 438.54 K, Liquid): 101.33 ± 0.025 kPa | molar entropy ([2]; 440 K, Liquid): 306.38 ± 7.1 J/K/mol | vapor or sublimation pressure ([2]; 444.91 K, Liquid): 120.8 ± 0.03 kPa | mass density [2, 8]: 781.3 ± 1.6 kg/m3 | vapor or sublimation pressure ([2]; 451.31 K, Liquid): 143.27 ± 0.03 kPa | vapor or sublimation pressure ([2]; 457.75 K, Liquid): 169.05 ± 0.04 kPa | molar entropy ([2]; 460 K, Liquid): 317.25 ± 7.4 J/K/mol | vapor or sublimation pressure ([2]; 464.23 K, Liquid): 198.53 ± 0.04 kPa | vapor or sublimation pressure ([2]; 470.74 K, Liquid): 232.06 ± 0.05 kPa | vapor or sublimation pressure ([2]; 477.28 K, Liquid): 270.07 ± 0.05 kPa | molar entropy ([2]; 480 K, Liquid): 327.92 ± 7.6 J/K/mol | molar entropy ([2]; 500 K, Liquid): 338.4 ± 7.9 J/K/mol | molar entropy ([2]; 520 K, Liquid): 348.69 ± 8.1 J/K/mol | molar entropy ([2]; 540 K, Liquid): 358.8 ± 8.3 J/K/mol | molar entropy ([2]; 560 K, Liquid): 368.76 ± 8.6 J/K/mol | molar entropy ([2]; 580 K, Liquid): 378.61 ± 8.8 J/K/mol | molar entropy ([2]; 600 K, Liquid): 388.45 ± 9 J/K/mol | mass density ([2]; 645.3 K, Gas, From heat capacities measured by DSC): 159 ± 16 kg/m3 | mass density ([2]; 648.6 K, Gas, From heat capacities measured by DSC): 220 ± 22 kg/m3 | mass density ([2]; 649 K, Gas, From heat capacities measured by DSC): 248 ± 25 kg/m3 | mass density ([2]; 650 K, Liquid, From heat capacities measured by DSC): 413 ± 41 kg/m3 | mass density ([2]; 656.5 K, Liquid, From heat capacities measured by DSC): 292 ± 29 kg/m3 | Critical density ([2]; Liquid): 285.8 ± 29 kg/m3 | Critical temperature ([2]; Liquid): 653 ± 3 K

Cc1ccc(C)[nH]1 [2,5-dimethyl-1H-pyrrole]
molar heat capacity ([1]; 380 K): 227.58 ± 3.9 J/K/mol | molar heat capacity ([1]; 400 K): 234.06 ± 4.1 J/K/mol | molar heat capacity ([1]; 420 K): 240.2 ± 4.2 J/K/mol | molar heat capacity ([1]; 440 K): 246 ± 4.3 J/K/mol | molar heat capacity ([1]; 460 K): 251.53 ± 4.4 J/K/mol | molar heat capacity ([1]; 480 K): 256.87 ± 4.4 J/K/mol | molar heat capacity ([1]; 500 K): 262.15 ± 4.5 J/K/mol | molar heat capacity ([1]; 520 K): 267.56 ± 4.6 J/K/mol | molar heat capacity ([1]; 540 K): 273.45 ± 4.7 J/K/mol | molar heat capacity ([1]; 560 K): 280.39 ± 4.9 J/K/mol | molar heat capacity ([1]; 580 K): 289.72 ± 5 J/K/mol | molar heat capacity ([1]; 600 K): 303.59 ± 5.3 J/K/mol | mass density [2, 3]: 910.8 ± 1.8 kg/m3 | vapor or sublimation pressure ([2]; 341.46 K, Liquid): 1.997 ± 0.008 kPa | mass density [2, 4]: 890.3 ± 1.8 kg/m3 | vapor or sublimation pressure ([2]; 354.8 K, Liquid): 3.994 ± 0.008 kPa | vapor or sublimation pressure ([2]; 360.76 K, Liquid): 5.333 ± 0.008 kPa | vapor or sublimation pressure ([2]; 369.58 K, Liquid): 8.007 ± 0.008 kPa | mass density [2, 5]: 867.7 ± 1.7 kg/m3 | vapor or sublimation pressure ([2]; 376.17 K, Liquid): 10.67 ± 0.009 kPa | molar entropy ([2]; 380 K, Liquid): 263.56 ± 6.1 J/K/mol | vapor or sublimation pressure ([2]; 381.49 K, Liquid): 13.34 ± 0.009 kPa | vapor or sublimation pressure ([2]; 386.98 K, Liquid): 16.66 ± 0.01 kPa | vapor or sublimation pressure ([2]; 391.56 K, Liquid): 19.93 ± 0.011 kPa | vapor or sublimation pressure ([2]; 397.58 K, Liquid): 25.02 ± 0.012 kPa | mass density [2, 6]: 843.9 ± 1.7 kg/m3 | molar entropy ([2]; 400 K, Liquid): 275.4 ± 6.4 J/K/mol | vapor or sublimation pressure ([2]; 403.63 K, Liquid): 31.18 ± 0.014 kPa | vapor or sublimation pressure ([2]; 409.71 K, Liquid): 38.56 ± 0.016 kPa | vapor or sublimation pressure ([2]; 415.81 K, Liquid): 47.35 ± 0.019 kPa | molar entropy ([2]; 420 K, Liquid): 286.97 ± 6.7 J/K/mol | vapor or sublimation pressure ([2]; 421.96 K, Liquid): 57.8 ± 0.022 kPa | mass density [2, 7]: 819.6 ± 1.6 kg/m3 | vapor or sublimation pressure ([2]; 428.14 K, Liquid): 70.1 ± 0.025 kPa | vapor or sublimation pressure ([2]; 434.36 K, Liquid): 84.53 ± 0.029 kPa | molar entropy ([2]; 440 K, Liquid): 298.28 ± 6.9 J/K/mol | vapor or sublimation pressure ([2]; 440.62 K, Liquid): 101.35 ± 0.034 kPa | vapor or sublimation pressure ([2]; 446.89 K, Liquid): 120.78 ± 0.04 kPa | mass density [2, 8]: 793.5 ± 1.6 kg/m3 | vapor or sublimation pressure ([2]; 453.2 K, Liquid): 143.21 ± 0.04 kPa | vapor or sublimation pressure ([2]; 459.55 K, Liquid): 169.03 ± 0.05 kPa | molar entropy ([2]; 460 K, Liquid): 309.34 ± 7.2 J/K/mol | vapor or sublimation pressure ([2]; 465.94 K, Liquid): 198.49 ± 0.06 kPa | vapor or sublimation pressure ([2]; 472.36 K, Liquid): 232.03 ± 0.07 kPa | mass density ([2]; 473.11 K, Liquid, Vibrating tube method): 766.5 ± 1.5 kg/m3 | vapor or sublimation pressure ([2]; 478.82 K, Liquid): 270.08 ± 0.08 kPa | molar entropy ([2]; 480 K, Liquid): 320.16 ± 7.4 J/K/mol | mass density ([2]; 498.11 K, Liquid, Vibrating tube method): 738.1 ± 1.5 kg/m3 | molar entropy ([2]; 500 K, Liquid): 330.75 ± 7.7 J/K/mol | mass density ([2]; 508.11 K, Liquid, Vibrating tube method): 725.6 ± 1.5 kg/m3 | molar entropy ([2]; 520 K, Liquid): 341.13 ± 7.9 J/K/mol | molar entropy ([2]; 540 K, Liquid): 351.34 ± 8.2 J/K/mol | molar entropy ([2]; 560 K, Liquid): 361.4 ± 8.4 J/K/mol | molar entropy ([2]; 580 K, Liquid): 371.4 ± 8.6 J/K/mol | molar entropy ([2]; 600 K, Liquid): 381.43 ± 8.9 J/K/mol | mass density ([2]; 650 K, Gas, From heat capacities measured by DSC): 144 ± 14 kg/m3 | mass density ([2]; 660.8 K, Gas, From heat capacities measured by DSC): 257 ± 26 kg/m3 | mass density ([2]; 661.5 K, Liquid, From heat capacities measured by DSC): 334 ± 33 kg/m3 | mass density ([2]; 661.7 K, Liquid, From heat capacities measured by DSC): 299 ± 30 kg/m3 | Critical density ([2]; Liquid): 288.6 ± 29 kg/m3 | Critical temperature ([2]; Liquid): 662 ± 2 K

Reference: the NIST ThermoML archive (doi:10.1016/j.jct.2017.09.005)
